The source of these data is PubChem BioAssay AID1996.

SMILES strings stand for the structures. Converted amounts (≈) assume the structure as drawn. Some results are limits rather than exact numbers.

By solubility (kinetic) is commonly meant the concentration staying in solution when a stock, usually in DMSO, is diluted into the medium.

The conditions of the data set: buffer; pH 7.4; 200.0 µM.
On to `Cc1ccc(SCC(=O)NC2CC3CCC(C2)N3C)cc1` (stereo not drawn), for which the kinetic solubility was found to be 45.1 µg/mL (≈ 148 µM).

Molecule `COc1ccc(Nc2cc(Nc3cccc(OC)c3)ncn2)cc1` had a solubility (kinetic) of 0.5 µg/mL (≈ 1.55 µM).

The molecule `CCC(Oc1ccccc1F)C(=O)NCCN1CCOCC1` (stereo not drawn) came in with a kinetic solubility of 44.3 µg/mL (≈ 143 µM).

Molecule `COc1ccc(Cn2cnc3c4cc(F)ccc4n(C)c3c2=O)cc1` yielded a solubility (kinetic) of under 0.2 µg/mL.

As to `Cc1cccc(NC(=O)CC(=O)Nc2cccc(C)c2)c1`, the solubility (kinetic) is 5.7 µg/mL (≈ 20.2 µM).

`Cn1c(=O)c([N+](=O)[O-])c(-n2cnc3ccccc32)c2ccccc21` gave a solubility (kinetic) of over 48 µg/mL.

On to `CCOC(=O)Cc1csc(NC(=O)c2ccc(C)cc2)n1`, for which the kinetic solubility stood at 45.6 µg/mL (≈ 150 µM).

Turning to `COC(=O)c1ccc(NC(=O)NC(=O)Oc2ccccc2)cc1`, the solubility (kinetic) was 42.5 µg/mL (≈ 135 µM). This solubility kinetic and that of the molecule before are within 1.5-fold of each other.

For `Cc1nc2ccccc2c2c1C(=O)NC2=O`, the solubility (kinetic) was over 31.8 µg/mL.

Molecule `O=C(Nc1cccc(Cl)c1)c1ccc2ncsc2c1` showed a kinetic solubility of 21.2 µg/mL (≈ 73.4 µM).

`O=C(Nc1ccc(NC(=O)c2cccnc2)cc1)c1ccccc1`: the kinetic solubility was determined as 0.8 µg/mL (≈ 2.52 µM).

`O=C(CSCc1ccc(Cl)cc1Cl)Nc1ccc(O)cc1C(=O)O` had a kinetic solubility of over 57.9 µg/mL.

In the case of `COc1ccc(CNc2ncccn2)cc1OC`, the solubility (kinetic) is over 36.8 µg/mL.

`CCc1nc(=O)c(-c2ccccc2)c(C)n1-c1ccccc1`: the kinetic solubility is over 43.6 µg/mL.

In turn, `CCOc1ccccc1C(=O)Nc1ccc2c(c1)C(=O)NC2=O` returned a solubility (kinetic) of under 0.3 µg/mL.

In the case of `Cc1nc2ccccc2c(=O)n1-c1ccc(Cl)c(Cl)c1`, the solubility (kinetic) was determined as 44 µg/mL (≈ 144 µM).

In the case of `Cc1cc(C)c(C#N)c(SC(C(=O)NC(C)(C)C)c2ccccc2)n1` (stereo not drawn), the kinetic solubility is under 0.3 µg/mL.

Regarding `CC1CN(S(=O)(=O)c2cc(C(=O)N(C)Cc3cccs3)ccc2Cl)CC(C)O1` (stereo not drawn), the kinetic solubility was 64.6 µg/mL (≈ 146 µM).

Take `Cl.Clc1cc(I)cc(Cl)c1NC1=NCCN1`: the solubility (kinetic) was over 58.9 µg/mL.

Regarding `CCOC(=O)CNC(=O)c1cccnc1Oc1ccc(Cl)cc1`, the kinetic solubility is 20.2 µg/mL (≈ 60.3 µM).

In the case of `Clc1cccc(CN2CCCCCC2)c1`, the kinetic solubility stood at 14.3 µg/mL (≈ 63.9 µM).

For `Cc1ccc(S(=O)(=O)NCC2(c3ccccc3)CCOCC2)cc1`, the kinetic solubility is under 0.7 µg/mL.

Molecule `COc1ccc(O)c(/C=N/c2sc(C)c(C)c2C#N)c1` returned a kinetic solubility of 1 µg/mL (≈ 3.49 µM).

Take `O=C(CCCO)NNc1c2ccccc2nc2ccccc12`: the solubility (kinetic) is over 44.3 µg/mL.

`CC(C)(C)Nc1nc(Cl)nc(NCCN2CCOCC2)n1` gave a solubility (kinetic) of 46.1 µg/mL (≈ 146 µM).

`CC1C(=O)N2CCCc3cc(NC(=O)CC(C)(C)C)cc1c32` (stereo not drawn) had a kinetic solubility of 39.7 µg/mL (≈ 132 µM).

For `Cc1ccc(NC(=S)N(C)C)cc1C`, the solubility (kinetic) stood at 29.4 µg/mL (≈ 141 µM).

As to `Cc1c(C(=O)N2CCC[C@H]2C(N)=O)oc2c(F)cccc12`, the solubility (kinetic) was found to be 38.1 µg/mL (≈ 131 µM).

Regarding `O=C(O)c1cc2cc(Oc3ccccc3)ccc2[nH]1`, the kinetic solubility is over 38 µg/mL.

`O=C(Cc1ccccc1)Nc1ccc(NC(=O)c2ccco2)cc1` came in with a kinetic solubility of 4 µg/mL (≈ 12.5 µM).

The molecule `Br.COc1ccc(-c2nc3n(c2C)CCC3)cc1` came in with a solubility (kinetic) of over 46.4 µg/mL.

Turning to `CCCN(CCC)C(=S)NC1CC2C=CC1C2` (stereo not drawn), the kinetic solubility is over 37.9 µg/mL.

Take `O=C(Cc1ccc(Cl)cc1)OCC(=O)c1ccc[nH]1`: the solubility (kinetic) came to 27.3 µg/mL (≈ 98.3 µM).

`CCc1ccnc(NS(=O)(=O)c2ccc3c(c2)OCCO3)c1`: the kinetic solubility was determined as 7.2 µg/mL (≈ 22.5 µM).

As to `CSc1ccc(CN(C)CC(=O)NCCc2ccccc2)cc1`, the kinetic solubility was over 49.3 µg/mL.

The molecule `CCC(C)(C)NC(=O)C(OC(=O)c1ccco1)c1ccccc1F` (stereo not drawn) displayed a kinetic solubility of 22.1 µg/mL (≈ 66.3 µM).

`COC(=O)c1sccc1NC(=O)Nc1ccc(F)cc1` displayed a kinetic solubility of 28.4 µg/mL (≈ 96.5 µM).

With `CCOC(=O)c1cc(C(C)(C)C)n(CCCN2CCOCC2)c1C`, the kinetic solubility is 47.5 µg/mL (≈ 141 µM). Compared with the last molecule, the solubility kinetic is about 1.7-fold higher.

Take `Cc1cc(OCC(=O)N(C)Cc2ccccc2)ccc1Br`: the solubility (kinetic) amounted to 22.7 µg/mL (≈ 65.2 µM).

Molecule `O=C(/C=C/c1cccc(F)c1)NCc1ccc2c(c1)OCO2` yielded a solubility (kinetic) of 3.3 µg/mL (≈ 11 µM).

Consider `COc1ccc(OC)c(NC(=O)c2cc3c(cc2Cl)N2CCCCCC2=NS3(=O)=O)c1`, for which the kinetic solubility was determined as 3.7 µg/mL (≈ 7.98 µM).

Take `COc1ccc(C(C)NC(=O)C23CC4CC(CC(C4)C2)C3)cc1` (stereo not drawn): the kinetic solubility was determined as 0.8 µg/mL (≈ 2.55 µM).

`CCCCN(C)Cc1c(C)[nH]c2ccccc2c1=O` displayed a solubility (kinetic) of over 38.8 µg/mL.

Consider `CCOC(=O)C1=C(N)Oc2cc(O)ccc2C1c1ccc(F)cc1F` (stereo not drawn), for which the solubility (kinetic) is under 0.7 µg/mL.

Molecule `CC1CCN(CCC(=O)Nc2nccs2)CC1` showed a solubility (kinetic) of 33.7 µg/mL (≈ 133 µM).

Molecule `O=C(CNC(=O)c1ccc(F)cc1)Nc1ccccc1C(F)(F)F` came in with a kinetic solubility of 16.2 µg/mL (≈ 47.6 µM).

The molecule `O=C(Cc1ccc(Cl)cc1)N1CCOCC1` had a kinetic solubility of over 36 µg/mL.

`O=C(Nc1nccs1)c1ccc(Br)cc1` returned a kinetic solubility of 2.2 µg/mL (≈ 7.77 µM).

Consider `CNc1ccc(Cl)cc1C(N)=O`, for which the kinetic solubility is over 27.7 µg/mL.

Consider `O=C(O)c1ccc(NCc2ccc(Br)cc2)cc1`, for which the kinetic solubility was over 45.9 µg/mL.

For the molecule `Cn1ccnc1C(=O)Cc1ccc([N+](=O)[O-])cc1`, the solubility (kinetic) was 35.2 µg/mL (≈ 144 µM).

Consider `COC(=O)c1cc(S(=O)(=O)N(C)C2CCCCC2)c[nH]1`, for which the solubility (kinetic) was over 45.1 µg/mL.

In turn, `COc1cc(OC)c(NC(=O)C2CCCO2)cc1Cl` (stereo not drawn) yielded a solubility (kinetic) of over 42.9 µg/mL.
